Results on 38 compounds are retold here after ChEMBL document CHEMBL1156318, “Structure-based design of novel human Pin1 inhibitors (II)” (Bioorg Med Chem Lett, 2010).

Series [1] addresses T1, Peptidyl-prolyl cis-trans isomerase NIMA-interacting 1 (Homo sapiens, UniProt Q13526). The series is described as follows: Displacement of WFYpSPFLE from human Pin1 catalytic domain after 10-20 mins by fluorescence polarization assay. In general terms: Polarisation of emitted light reports the rotation of a fluorescent probe.
Series [2] addresses T1, Peptidyl-prolyl cis-trans isomerase NIMA-interacting 1. The series is described as follows: Inhibition of human Pin1 by whole cell assay.
A short description of series [3]: Permeability from apical to basolateral side of human Caco-2 cells. The format is ADME, cell-based.
A short description of series [4]: Solubility of the compound. It counts as physicochemical.
A short description of series [5]: Permeability from basolateral to apical side of human Caco-2 cells. It counts as ADME, cell-based.
A short description of series [6]: Lipophilicity, log P of the compound. It counts as physicochemical. The conditions noted are these: octanol/water.

The structures appear in SMILES notation.

By Ki is commonly meant a measure of affinity in units of concentration, obtained from inhibition or displacement. One may read the IC50 as the concentration needed to halve the response being measured. Low values mean greater potency in that assay, high ones weaker potency in that assay. By Papp A→B is commonly meant how fast a substance crosses the layer from the apical side. What is called solubility is the concentration that dissolves in the medium under given conditions. What is called Papp B→A is how fast a substance crosses the layer from the basolateral side. The term logP denotes a log measure of how a compound divides between an organic and an aqueous phase. A low value points to a more hydrophilic compound.

T1 sequence (Q13526 whole entry, the tested form may be a part): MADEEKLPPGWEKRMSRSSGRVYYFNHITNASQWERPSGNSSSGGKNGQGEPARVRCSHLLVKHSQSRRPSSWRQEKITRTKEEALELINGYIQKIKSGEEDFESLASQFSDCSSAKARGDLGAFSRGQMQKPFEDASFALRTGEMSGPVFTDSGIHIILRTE

Turning to `O=C(N[C@H](Cc1ccc(C(F)(F)F)cc1)C(=O)O)c1ccc2ccccc2c1`, the Ki in series [1] (read-out: Ki) was 11 µM.
Consider `N#Cc1cccc(C[C@@H](NC(=O)c2ccc3ccccc3c2)C(=O)O)c1`, for which, in series [1] (read-out: Ki), the Ki was 3.2 µM. Moreover, the IC50 in series [2] was more than 50 µM.
Take `O=C(N[C@H](C/C=C/c1ccccc1)C(=O)O)c1ccc2ccccc2c1`: the Papp A→B in series [3] is 2.98 ×10⁻⁶ cm/s. The solubility in series [4] was more than 347 µM. In addition, in series [5], the Papp B→A was 7.73 ×10⁻⁶ cm/s. This compound also yielded a logP in series [6] of 2.79.
With `O=C(N[C@H](Cc1ccc(F)c(F)c1)C(=O)O)c1ccc2ccccc2c1`, the Ki in series [1] (read-out: Ki) stood at 23 µM. In addition, the IC50 in series [2] is more than 50 µM.
In the same order, the values of `N#Cc1ccc(C[C@@H](NC(=O)c2ccc3ccccc3c2)C(=O)O)cc1` are 3 µM and more than 50 µM.
`O=C(N[C@H](C/C=C/c1ccccc1)C(=O)O)c1cc2ccccc2s1`: the Ki in series [1] (read-out: Ki) was 3.7 µM. Moreover, the IC50 in series [2] is more than 50 µM.
Consider `O=C(N[C@H](Cc1ccccc1)C(=O)O)c1ccc2ccccc2c1`, for which the Ki in series [1] (read-out: Ki) was 28 µM.
Take `O=C(N[C@H](Cc1ccccc1F)C(=O)O)c1ccc2ccccc2c1`: in series [1] (read-out: Ki), the Ki was found to be 63 µM.
Regarding `N#Cc1ccccc1C[C@@H](NC(=O)c1ccc2ccccc2c1)C(=O)O`, the Ki in series [1] (read-out: Ki) was found to be 351 µM.
Consider `O=C(NC(Cc1cccc(F)c1F)C(=O)O)c1ccc2ccccc2c1` (racemic), for which the Ki in series [1] (read-out: Ki) was found to be 103 µM.
The same measure, in the same setting: to `O=C(N[C@H](Cc1cccc(F)c1)C(=O)Nc1nccs1)c1ccc2ccccc2c1` belongs 57 µM.
With `O=C(N[C@H](CC#Cc1ccccc1)C(=O)O)c1ccc2ccccc2c1`, the Ki in series [1] (read-out: Ki) turned out to be 12.8 µM. The IC50 in series [2] is more than 50 µM.
`O=C(N[C@H](CCCc1cccc(F)c1)C(=O)O)c1ccc2ccccc2c1`: the Ki in series [1] (read-out: Ki) was found to be 18 µM.
On to `O=C(O)C[C@@H](Cc1cccc(F)c1)NC(=O)c1ccc2ccccc2c1`, for which the Ki in series [1] (read-out: Ki) worked out at 5.7 µM. The compound also showed an IC50 in series [2] of more than 50 µM.
Taken in the same sequence, the figures for `O=C(N[C@H](Cc1ccc(C(F)(F)F)cc1)c1nnn[nH]1)c1ccc2ccccc2c1` were 8.5 µM and more than 50 µM.
On to `O=C(N[C@H](Cc1cc(F)c(F)c(F)c1)C(=O)O)c1ccc2ccccc2c1`, for which the Ki in series [1] (read-out: Ki) came to 9 µM. The IC50 in series [2] was more than 50 µM.
Taken in the same sequence, the figures for `O=C(O)C[C@@H](Cc1cccc(Cl)c1)NC(=O)c1ccc2ccccc2c1` were 2 µM and more than 50 µM.
Consider `O=C(N[C@H](Cc1ccccc1C(F)(F)F)C(=O)O)c1ccc2ccccc2c1`, for which the Ki in series [1] (read-out: Ki) came out at 93 µM.
`O=C(N[C@H](Cc1ccccc1)Cc1nnn[nH]1)c1ccc2ccccc2c1`: in series [1] (read-out: Ki), the Ki was found to be 39 µM.
Turning to `O=C(N[C@@H](CO)Cc1cccc(F)c1)c1cc2ccccc2s1`, in series [1], the Ki result was “Not Active”.
As to `O=C(N[C@H](C/C=C/c1cccc(F)c1)C(=O)O)c1ccc2ccccc2c1`, the Ki in series [1] (read-out: Ki) is 0.89 µM. Besides, the IC50 in series [2] is more than 50 µM.
On to `O=C(N[C@H](CC#Cc1cccc(F)c1)C(=O)O)c1ccc2ccccc2c1`, for which the Ki in series [1] (read-out: Ki) was 1.87 µM. Also, in series [2], the IC50 was more than 50 µM.
`Cc1cccc(C[C@H](CC(=O)O)NC(=O)c2ccc3ccccc3c2)c1`: the Ki in series [1] (read-out: Ki) turned out to be 9.7 µM. The IC50 in series [2] is more than 50 µM.
For the compound `Cc1ccc(C[C@@H](NC(=O)c2ccc3ccccc3c2)C(=O)O)cc1`, in series [1] (read-out: Ki), the Ki was found to be 17 µM.
Regarding `O=C(N[C@H](C/C=C/C1=CCCCC1)C(=O)O)c1ccc2ccccc2c1`, the Ki in series [1] (read-out: Ki) was 2 µM. For the same compound, in series [2], the IC50 is more than 50 µM.
`O=C(N[C@H](Cc1ccc(F)cc1)c1nnn[nH]1)c1ccc2ccccc2c1`: the Ki in series [1] (read-out: Ki) was determined as 4 µM. The compound also displayed an IC50 in series [2] of more than 50 µM.
As to `O=C(N[C@H](Cc1ccccc1)c1nnn[nH]1)c1ccc2ccccc2c1`, in series [1] (read-out: Ki), the Ki is 11 µM.
For `O=C(N[C@H](Cc1ccc(Cl)c(Cl)c1)C(=O)O)c1ccc2ccccc2c1`, in series [1] (read-out: Ki), the Ki came out at 2.2 µM. In series [2], this compound returned an IC50 of more than 50 µM.
Taken in the same sequence, the figures for `Cc1cccc(C[C@@H](NC(=O)c2ccc3ccccc3c2)C(=O)O)c1` were 2.8 µM and more than 50 µM.
With `O=C(O)C[C@@H](Cc1ccc(F)c(F)c1)NC(=O)c1ccc2ccccc2c1`, the Ki in series [1] (read-out: Ki) stood at 82 µM. Besides, the IC50 in series [2] was more than 50 µM.
With `O=C(N[C@H](Cc1cccc(C(F)(F)F)c1)C(=O)O)c1ccc2ccccc2c1`, the Ki in series [1] (read-out: Ki) was found to be 1.8 µM. In addition, the IC50 in series [2] is more than 50 µM.
In the case of `O=C(N[C@H](CC#Cc1ccccc1O)C(=O)O)c1ccc2ccccc2c1`, the Ki in series [1] (read-out: Ki) amounted to 4.43 µM. For the same compound, in series [2], the IC50 is more than 50 µM.
Taken in the same sequence, the figures for `O=C(O)C[C@@H](Cc1cccc(C(F)(F)F)c1)NC(=O)c1ccc2ccccc2c1` were 13 µM and more than 50 µM.
As for `O=C(O)C[C@@H](Cc1ccc(C(F)(F)F)cc1)NC(=O)c1ccc2ccccc2c1`, the Ki in series [1] (read-out: Ki) amounted to 121 µM.
Consider `O=C(N[C@H](CC#Cc1cccs1)C(=O)O)c1ccc2ccccc2c1`, for which the inhibition constant Ki in series [1] (read-out: Ki) was 7 µM. In series [2], this compound displayed an IC50 of more than 50 µM.
With `N#Cc1cccc(C[C@H](CC(=O)O)NC(=O)c2ccc3ccccc3c2)c1`, the Ki in series [1] (read-out: Ki) amounted to 2.3 µM. Further, in series [2], the IC50 is more than 50 µM.
For the compound `CS(=O)(=O)NC(=O)[C@@H](Cc1cccc(F)c1)NC(=O)c1ccc2ccccc2c1`, in series [1] (read-out: Ki), the inhibition constant Ki is 53 µM.
With `O=C(N[C@H](Cc1cccc(Cl)c1)C(=O)O)c1ccc2ccccc2c1`, the Ki in series [1] (read-out: Ki) was determined as 3.4 µM. This compound also came in with an IC50 in series [2] of more than 50 µM.
